# Values quoted from earlier work, collected in patent US20130281390A1, “METHOD FOR TREATING DRY EYE” (priority 2010, published 2013).
# Tested on: subjects with meibomian gland dysfunction
# Settings: daily topical administration to the ocular surface
smiles,measurement,value
CC[C@H]1OC(=O)[C@H](C)[C@@H](O[C@H]2C[C@@](C)(OC)[C@@H](O)[C@H](C)O2)[C@H](C)[C@@H](O[C@@H]2O[C@H](C)C[C@H](N(C)C)[C@H]2O)[C@](C)(O)C[C@@H](C)CN(C)[C@H](C)[C@@H](O)[C@]1(C)O [azithromycin],physicochemical properties of the meibum,improved the physicochemical properties of the meibum towards that of normal subjects
